Assays:
[1] = tested on: nauplius larva of Artemia salina; assay: Anti-arthropod activity on nauplius larva in 96-well microplate; type: in vivo; conditions: observed microscopically after 2 days
Protocol: Next, anti-arthropod activities of antibiotic FKI-1778 10 of the present invention are described hereinbelow. Methanol solution of each antibiotic FKI-1778 was placed in the microplate (96 wells) (Corning Corp., the U.S.). […] The buffer solution 50 μl containing several numbers of nauplius larva of Artemia salina, Arthropod, which was incubated in the buffer solution (Tris 20 mM, sodium chloride 440 mM, magnesium chloride 23 mM, sodium carbonate 1.9 mM, magnesium sulfate 53 mM and calcium chloride 10 mM), was added to each well, and the condition thereof was observed microscopically after 2 days.

[2] = tested on: various microorganisms; assay: Growth inhibitory activity against various microorganisms (summary of Table 2); type: cell-based; conditions: result in words
Source text: Next, diameters of inhibition ring of antibiotic FKI-1778A, antibiotic FKI-1778B, antibiotic FKI-1778C and antibiotic FKI-1778D against various microorganisms on the nutrient agar medium are shown in Table 2.

[3] = tested on: human leukemia cell strain Jurkat cell; assay: Cell cycle G1 phase terminating activity, DNA content by flow cytometer; type: cell-based; conditions: Jurkat cells, 5 μg added to 200 μl medium, 24 hours; for G2/M phase: No addition 22.3; for G1 phase: No addition 53.2
Protocol: Further, a terminating activity of antibiotic FKI-1778 of the present invention against cell cycle G1 phase in cancer cells is explained as follows. Using 96-well microplate (Corning Corp., the U.S.), human leukemia cell strain Jurkat cell, 5×10^5 cells/well, was inoculated into RPMI 1640 medium (IWAKI Corp., Japan) 200 μl containing a mixture of 10% fetal bovine serum and 1% penicillin (10,000 units/ml)—streptomycin (10 mg/ml) (Invitrogen Inc., the U.S.) and cultured. Antibiotic FKI-1778, 5 μg, was added thereto, and the mixture was incubated at 37° C. for 24 hours under 5% CO2 atmosphere, and the culture supernatant was discarded. Cells were suspended in 0.1% aqueous sodium citrate solution (200 μl) containing 0.002% ribonuclease A (Sigma Corp., the U.S.), 0.005% propidium iodide (Sigma Corp., the U.S.) and 0.3 ml/100 ml IGEPAL-CA-630 (Sigma Corp., the U.S.). After the cell suspension was allowed to stand for 2 hours or more, DNA contents in 10,000 cells were measured by using flow cytometer (FACS Calibur, Becton, Dickinson and Company, the U.S.), then DNA contents of cells in G1 phase, S phase and G2/M phase were measured by using software, Cell Quest (Becton, Dickinson and Company, the U.S.).

Row | Compound | Anti-arthropod activity [1] [µg/mL] | growth inhibitory activities against various microorganisms [2] | G2/M phase [3] [%] | G1 phase [3] [%]
1 | C=C(C)C(O)CCC1(C)C(OC(C)=O)CCC2(C)C(Cc3c(O)c(C)c(C)oc3=O)C(=C)CCC12 (stereo not shown) [FKI-1778C] | >200 | no growth inhibitory activities | 13.0 | 64.2
2 | C=C1CCC2C(C)(CC/C=C(\C)C(=O)O)C(OC(C)=O)CCC2(C)C1Cc1c(O)c(C)c(C)oc1=O (stereo not shown) [FKI-1778A] | >200 | no growth inhibitory activities | 12.8 | 62.4
3 | C=C1CCC2C(C)(CC/C=C(/C)CO)C(OC(C)=O)CCC2(C)C1Cc1c(O)c(C)c(C)oc1=O (stereo not shown) [FKI-1778D] | 100 | no growth inhibitory activities | 9.9 | 63.9
4 | C=C1CCC2C(C)(CC/C=C(\C)CO)C(OC(C)=O)CCC2(C)C1Cc1c(O)c(C)c(C)oc1=O (stereo not shown) [FKI-1778B] | 100 | no growth inhibitory activities | 12.0 | 55.0

— US20070032545A1, “Antibiotic fki-1778 and process for producing the same” (priority 2004, published 2007)
